Experimental data from paper PMC7156458, “Synthetic biology based construction of biological activity-related library of fungal decalin-containing diterpenoid pyrones” (Nature Communications, 2020).
“And” between values parts separate entries of the source, which are not always exact repeats. Identical values can stand only once. Like-named read-outs stand apart in the source and are kept apart here.

Key:
MCF-7 cells = experiment: cell cytotoxic effects against MCF-7 cells (72 h), A490; type: cell-based, human; conditions: for viability at 0.1 µM / viability at 1 µM / viability at 10 µM: Homo sapiens, MCF7, 72 h, read-out: A490 (control =1) ave
[1] = cytotoxicity in Drosophila l(2)mbn cells; type: cell-based; conditions: Drosophila, l(2)mbn cells (larval blood cell-derived)
Description: (§1) We screened the DDPs on the Drosophila assay system for cytotoxicity, inhibitory activity of innate immune signalling and insecticidal activity. The cytotoxicity of the DDPs was evaluated using two cell lines, embryonic macrophage-derived DL1 cells[58]–[60] and larval blood cell-derived l(2)mbn cells, and their IC50 values are listed in Supplementary Table 23.

l(2)mbn cells = experiment: cytotoxicity in Drosophila l(2)mbn cells; type: cell-based; conditions: for Luminescence Raw1: replicate 1; for Luminescence Raw2: replicate 2; for % viability, viability 1: replicate 1, relative to DMSO 1%; for % viability, viability 2: replicate 2, relative to DMSO 1%
Description: as §1

MAGI cells = experiment: cytotoxicity in the anti-HIV assay (CC50); type: cell-based; conditions: for Cytotoxicity: single determinations
Description: We examined the inhibitory activities of DDPs against various species of bacteria (both gram-negative and gram-positive bacteria), fungi and viruses. […] In contrast, preliminary screening of the DDPs for anti-viral agents with hepatitis B virus (HBV), measles virus (MV), Epstein-Barr virus (EBV), herpes simplex virus (HSV) and human immunodeficiency virus-1 (HIV-1) indicated their selective inhibition of HIV.
Policy information about cell lines […]
HeLa-CD4-LTR/ !-galactosidase (MAGI) cells provided by Dr. J. Overbaugh through the NIH AIDS Research and Reference […]
MAGI cells were authenticated by the NIH.
Mycoplasma contamination All the cell lines tested negative for mycoplasma contamination.
Commonly misidentified lines No commonly mis-identified cell lines. […]

[2] = MCF-7, 72 h, 0.1 µM (DMSO 0.002%)
[3] = MCF-7, 72 h, 0.1 µM (DMSO 0.002%), control 1.064
[4] = MCF-7, 72 h, 1 µM (DMSO 0.02%), control 1.104
[5] = MCF-7, 72 h, 10 µM (DMSO 0.2%), control 1.049
[6] = replicate 1, relative to DMSO 1%, read-out: % viability, viability 1
[7] = replicate 2, relative to DMSO 1%, read-out: % viability, viability 2
[8] = Drosophila melanogaster, cytotoxicity, average±SEM, read-out: IC50

Structure (SMILES)	viability at 0.1 µM (MCF-7 cells; [2]) [%]	viability at 1 µM (MCF-7 cells; MCF-7, 72 h, 1 µM (DMSO 0.02%)) [%]	viability at 10 µM (MCF-7 cells; MCF-7, 72 h, 10 µM (DMSO 0.2%)) [%]	A490 ave (MCF-7 cells; [3])	A490 ave (MCF-7 cells; [4])	A490 ave (MCF-7 cells; [5])	viability at 0.04 µM [1, 6] [%]	Luminescence Raw1 (l(2)mbn cells; 0.04 µM)	Luminescence Raw2 (l(2)mbn cells; 0.04 µM)	Luminescence Raw1 (l(2)mbn cells; 0.2 µM)	Luminescence Raw2 (l(2)mbn cells; 0.2 µM)	Luminescence Raw1 (l(2)mbn cells; 1 µM)	Luminescence Raw2 (l(2)mbn cells; 1 µM)	Luminescence Raw1 (l(2)mbn cells; 4 µM)	Luminescence Raw2 (l(2)mbn cells; 4 µM)	Luminescence Raw1 (l(2)mbn cells; 10 µM)	Luminescence Raw2 (l(2)mbn cells; 10 µM)	Luminescence Raw1 (l(2)mbn cells; 20 µM)	Luminescence Raw2 (l(2)mbn cells; 20 µM)	Cytotoxicity (MAGI cells)	further results
C=C1CCC2C(C)(CC(=O)C=C(C)C)C(O)CCC2(C)C1Cc1c(OC)oc(CO)c(C)c1=O (centres unmarked) [Compound 19]	65	110	104	0.691	1.209	1.093	154	3944169	2684872	3351106	3081647	3286175	3371307	3215834	2985337	2665756	3480969	2956119	3004455	6.158 µM and 7.239 µM and 4.642 µM	viability at 0.04 µM [1, 7]: 105%; viability at 0.2 µM [1, 6]: 131%; viability at 0.2 µM [1, 7]: 120%; viability at 1 µM [1, 6]: 128%; viability at 1 µM [1, 7]: 131%; viability at 4 µM [1, 6]: 125%; viability at 4 µM [1, 7]: 116%; viability at 10 µM [1, 6]: 104%; viability at 10 µM [1, 7]: 136%; viability at 20 µM [1, 6]: 115%; viability at 20 µM [1, 7]: 117%; IC50 (l(2)mbn cells; [8]): > 20 µM; Cytotoxicity Avg. (MAGI cells; average of numeric determinations): 6.013 µM
C=C1CCC2C(C)(CCC=C(C)C)C(O)CCC2(C)C1Cc1c(OC)oc(C)c(C)c1=O (centres unmarked) [Compound 15, viridoxin A hydrolysate]				0.873	1.333	0.649		5571583	5591430	6221854	5568336	6094827	5439516	5005443	4514031	362955	319326	109116	229184	>10 µM	viability at 0.1 µM (MCF-7 cells): 82%; viability at 1 µM (MCF-7 cells): 121%; viability at 10 µM (MCF-7 cells): 61.8%; % viability, viability 1 (l(2)mbn cells; 0.04 µM): 88.7303%; % viability, viability 2 (l(2)mbn cells; 0.04 µM): 89.0464%; % viability, viability 1 (l(2)mbn cells; 0.2 µM): 99.0862%; % viability, viability 2 (l(2)mbn cells; 0.2 µM): 88.6786%; % viability, viability 1 (l(2)mbn cells; 1 µM): 97.0632%; % viability, viability 2 (l(2)mbn cells; 1 µM): 86.6271%; % viability, viability 1 (l(2)mbn cells; 4 µM): 79.7142%; % viability, viability 2 (l(2)mbn cells; 4 µM): 71.8882%; % viability, viability 1 (l(2)mbn cells; 10 µM): 5.78%; % viability, viability 2 (l(2)mbn cells; 10 µM): 5.085%; % viability, viability 1 (l(2)mbn cells; 20 µM): 1.738%; % viability, viability 2 (l(2)mbn cells; 20 µM): 3.65%; IC50 (l(2)mbn cells; cytotoxicity, average±SEM): 5.23 ± 0.19 µM; IC50 (l(2)mbn cells; read-out: IC50 (1), cytotoxicity, replicate 1): 5.42 µM; IC50 (l(2)mbn cells; read-out: IC50 (2), cytotoxicity, replicate 2): 5.04 µM; IC50 (l(2)mbn cells; read-out: IC50 Average, cytotoxicity, average of two replicates): 5.23 µM
C=C1CC[C@H]2[C@]3(C)C[C@@H](C=C(C)C)O[C@H]3CC[C@]2(C)[C@@H]1Cc1c(OC)oc(CO)c(C)c1=O [Compound 17]	84.7	48.1	29.4	0.901	0.531	0.309	35.7	2242516	5241058	3856705	5991979	4822512	6091579	1969854	1392467	122097	121376	118130	243967	>10 µM	cytotoxicity against the bulk of MCF-7 cells (MCF-7 cells): dose-dependent cytotoxicity; viability at 0.04 µM [1, 7]: 83.5%; viability at 0.2 µM [1, 6]: 61.4%; viability at 0.2 µM [1, 7]: 95.4%; viability at 1 µM [1, 6]: 76.8%; viability at 1 µM [1, 7]: 97%; viability at 4 µM [1, 6]: 31.4%; viability at 4 µM [1, 7]: 22.2%; viability at 10 µM [1, 6]: 1.94%; viability at 10 µM [1, 7]: 1.93%; viability at 20 µM [1, 6]: 1.88%; viability at 20 µM [1, 7]: 3.89%; IC50 (l(2)mbn cells; Drosophila melanogaster, cytotoxicity, average of two replicates, read-out: IC50 Average): 1.78 µM; IC50 (l(2)mbn cells; [8]): 1.78 ± 0.43 µM; IC50 (l(2)mbn cells; Drosophila melanogaster, cytotoxicity, replicate 1, read-out: IC50 (1)): 1.35 µM; IC50 (l(2)mbn cells; Drosophila melanogaster, cytotoxicity, replicate 2, read-out: IC50 (2)): 2.22 µM
